Measured values as given in patent EP2078717A1, “6-Pyrimidinyl-pyrimid-2-one derivative” (sanofi-aventis, priority 2008, dated 2009).
Like-named read-outs stand apart in the source and are kept apart here.

Assays:
tau phosphorylation = experiment: Inhibitory activity on tau phosphorylation in vivo (pS396 Western blot of cortex); parameters: species or system male CD-1 mice; conditions: 10 mg/kg p.o., cortex removed after 1 hour, pS396 antibody; ** means statistically significant
Method: Experiment 7 : Inhibitory activity on tau phosphorylation in vivo
Test compound was administrated to male CD-1 mice of 5-6 weeks weighing 25-35 g (Charles River Japan, inc.) at 10 mg/kg p.o. (0.5% polyethylene glycol sorbitan monolaurate 80 (Tween80)/water suspension) and after 1 hour, mice were decapitated and cortex was promptly removed, followed by being frozen in liquid nitrogen. […] Protein concentrations were determined using DC protein assay kit (BIO-RAD). Supernatants were diluted with sample buffer (62.5 mM Tris-HCl, 25% glycerol, 2% SDS, 0.01% Bromophenol Blue, pH 6.8) to adjust the protein concentrations around […] and then boiled for 5 minutes. Samples (10 µ g) were separated on 10% sodium dodecyl sulfate-polyacrylamide electrophoresis (SDS-PAGE) mini slab gels and transferred onto polyvinylidene difluoride (PVDF) membranes. Membranes were incubated with phosphate buffered saline (PBS) containing 5% non-fat milk for 1 hour at room temperature and then probed with pS396 anti-body (BIOSOURCE) over night at 4 °C. Anti-rabbit IgG horseradish peroxidase (HRP) conjugated antibody (Promega) was used as secondary antibody. Membranes were visualized by Enhanced ChemiLuminescence (ECL) kit (Amersham Bioscience) and detected by LAS 1000 (Fuji Photo Film).

scopolamine-treated mice = experiment: Object recognition (OR) test of episodic memory in scopolamine-treated mice; conditions: for recognition index (RI): scopolamine 1 mg/kg 30 minutes before acquisition, 3 hours inter-trial interval
normal mice = experiment: Object recognition (OR) test of episodic memory in normal mice; assay type: in vivo; conditions: for minimal effective dose: Mus musculus, po

Cc1nc(-c2ccc([C@H]3CN(c4nc(-c5ccncn5)cc(=O)n4C)CCO3)cc2)no1 [Compound of the present invention]
in vivo 10 mg/kg, % phosphorylation against vehicle (tau phosphorylation): 58.14** %
minimal effective dose (scopolamine-treated mice; Mus musculus, po, read-out: Minimal Effective Dose, prevention of episodic memory deficits): 10 mg/kg
recognition index (RI) (scopolamine-treated mice; 10 mg/kg p.o. 1 hour before acquisition): 52.7%
recognition index (RI) (scopolamine-treated mice; 30 mg/kg p.o. 1 hour before acquisition): 60.4%
effect on episodic memory deficits induced by scopolamine (scopolamine-treated mice; single oral administration 3mg/kg): ineffective
effect on episodic memory deficits induced by scopolamine (scopolamine-treated mice; single oral administration 10 mg/kg, 30 minutes before scopolamine, 1 hour before acquisition): totally reversed
recognition index (RI) (normal mice; 1 mg/kg p.o. 1 hour before acquisition and retention sessions, 24 hours inter-trial interval): 50.3%
recognition index (RI) (normal mice; 3 mg/kg p.o. 1 hour before acquisition and retention sessions, 24 hours inter-trial interval): 52.6%
recognition index (RI) (normal mice; 3 mg/kg p.o. once immediately after the acquisition phase, 24 hours inter-trial interval): 54.6%
recognition index (RI) (normal mice; 10 mg/kg p.o. 1 hour before acquisition and retention sessions, 24 hours inter-trial interval): 60.4%
recognition index (RI) (normal mice; 10 mg/kg p.o. once immediately after the acquisition phase, 24 hours inter-trial interval): 58.6%
recognition index (RI) (normal mice; 30 mg/kg p.o. 1 hour before acquisition and retention sessions, 24 hours inter-trial interval): 62.9%
recognition index (RI) (normal mice; 30 mg/kg p.o. once immediately after the acquisition phase, 24 hours inter-trial interval): 60.0%
minimal effective dose (normal mice; normal mice, summary, read-out: minimal effective dose, increases episodic memory and consolidates episodic memory trace): 10 mg/kg
minimal effective dose (normal mice; p.o. 1 hour before acquisition and retention sessions, 24 hours inter-trial interval, read-out: dose from which memory performance increased significantly): ≥ 10 mg/kg
minimal effective dose (normal mice; p.o. once immediately after the acquisition phase, read-out: minimal effective dose, consolidation of episodic memory): 10 mg/kg
recognition index (RI) (normal mice; normal mice of the scopolamine experiment, 10 mg/kg p.o. 1 hour before acquisition, 3 hours inter-trial interval): 61.7%
recognition index (RI) (normal mice; normal mice of the scopolamine experiment, 30 mg/kg p.o. 1 hour before acquisition, 3 hours inter-trial interval): 59.7%

Cn1c(N2CCOC(c3nc(-c4ccccc4)no3)C2)nc(-c2ccncn2)cc1=O (centres unmarked) [compound 1]
in vivo 10 mg/kg, % phosphorylation against vehicle (tau phosphorylation): 92.12%

Cn1c(N2CCOC(c3noc(-c4ccccc4)n3)C2)nc(-c2ccncn2)cc1=O (centres unmarked) [compound 2, 1-Methyl-2-[2-(5-phenyl-[1,2,4]oxadiazol-3-yl)-morpholin-4-yl]-1H-[4,4']bipyrimidinyl-6-one]
in vivo 10 mg/kg, % phosphorylation against vehicle (tau phosphorylation): 79.21%

Cn1c(N2CCOC(c3ccc(-c4ccoc4)cc3)C2)nc(-c2ccncn2)cc1=O (centres unmarked) [compound 3, 2-[2-(4-Furan-3-yl-phenyl)-morpholin-4-yl]-1-methyl-1H-[4,4']bipyrimidinyl-6-one]
in vivo 10 mg/kg, % phosphorylation against vehicle (tau phosphorylation): 71.44%

Cn1ccnc1-c1ccc(C2CN(c3nc(-c4ccncn4)cc(=O)n3C)CCO2)cc1 (centres unmarked) [compound 4, 1-Methyl-2-{2-[4-(1-methyl-1H-imidazol-2-yl)-phenyl]-morpholin-4-yl}-1H-[4,4']bipyrimidinyl-6-one]
in vivo 10 mg/kg, % phosphorylation against vehicle (tau phosphorylation): 71.21%

Cn1c(N2CCOC(c3ccc(-n4cccn4)cc3)C2)nc(-c2ccncn2)cc1=O (centres unmarked) [compound 5, 1-Methyl-2-[2-(4-pyrazol-1-yl-phenyl)-morpholin-4-yl]-1H-[4,4']bipyrimidinyl-6-one]
in vivo 10 mg/kg, % phosphorylation against vehicle (tau phosphorylation): 53.35** %
